Data from ChEMBL document CHEMBL1150720, “Inhibition of mitochondrial NADH oxidase, succinoxidase, and ATPase by naturally occurring flavonoids” (J Nat Prod, 1987).
Calls of active or inactive are those of the source. The rule behind the calls is not given here.

Species: Bos taurus
Test: Inhibition of beef heart mitochondrial succinoxidase assessed as specific activity at 0.35 mM preincubated for 15 mins relative to control
Parameters: scale not given: the % may be the effect or the level left
Conditions: not given

Compound	Activity [%]
O=c1c(O)c(-c2cc(O)c(O)c(O)c2)oc2cc(O)cc(O)c12 [MYRICETIN]	14.7
COc1ccc(-c2cc(=O)c3c(O)cc(O)cc3o2)cc1	99.3
O=c1c(O)c(-c2ccc(O)cc2)oc2cc(O)cc(O)c12	84.4
O=c1c(O)c(-c2ccc(O)cc2O)oc2cc(O)cc(O)c12 [MORIN]	31.5
C[C@@H]1O[C@@H](OC[C@H]2O[C@@H](Oc3c(-c4ccc(O)c(O)c4)oc4cc(O)cc(O)c4c3=O)[C@H](O)[C@@H](O)[C@@H]2O)[C@H](O)[C@H](O)[C@H]1O [RUTIN]	66.7
O=c1cc(-c2ccc(O)cc2)oc2cc(O)cc(O)c12 [APIGENIN]	93.8
O=c1c(-c2ccc(O)cc2)coc2cc(O)cc(O)c12 [GENISTEIN]	98.3
O=c1cc(-c2ccccc2)oc2cc(O)cc(O)c12 [CHRYSIN]	75.8
O=C1C[C@@H](c2ccc(O)cc2)Oc2cc(O)cc(O)c21 [NARINGENIN]	84.8
O=c1cc(-c2ccccc2)oc2cc(O)ccc12 [7-HYDROXYFLAVONE]	91.3
O=C1CC(c2ccccc2)Oc2ccccc21 (centres undefined) [FLAVANONE]	84.8
O=c1cc(-c2ccccc2)oc2ccccc12 [FLAVONE]	82
O=c1c(O)c(-c2ccc(O)c(O)c2)oc2cc(O)ccc12 [FISETIN]	9.6
COc1ccc(-c2oc3cc(O)cc(O)c3c(=O)c2O)cc1	98.7
O=c1c(O)c(-c2ccc(O)c(O)c2)oc2cc(O)cc(O)c12 [QUERCETIN]	21.8
O=c1cc(-c2ccccc2)oc2cccc(O)c12 [5-HYDROXYFLAVONE]	95.7
O=c1c(O)c(-c2ccccc2)oc2cc(O)cc(O)c12 [GALANGIN]	92.4
COc1ccccc1-c1cc(=O)c2c(OC)cccc2o1	80.8

Molecular target: not listed separately
Test: Inhibition of rat liver mitochondrial ATPase assessed per mg of protein
Conditions: read-out: I50

Compound	IC50 [nmol/mg]
O=c1c(O)c(-c2cc(O)c(O)c(O)c2)oc2cc(O)cc(O)c12 [MYRICETIN]	370
O=c1c(O)c(-c2ccc(O)cc2O)oc2cc(O)cc(O)c12 [MORIN]	120
O=C1C[C@@H](c2ccc(O)cc2)Oc2cc(O)cc(O)c21 [NARINGENIN]	1800
O=c1c(O)c(-c2ccc(O)c(O)c2)oc2cc(O)ccc12 [FISETIN]	480
O=c1c(O)c(-c2ccc(O)c(O)c2)oc2cc(O)cc(O)c12 [QUERCETIN]	205

Species: Bos taurus
Test: Inhibition of beef heart mitochondrial NADH oxidase assessed as specific activity at 0.35 mM preincubated for 15 mins relative to control
Parameters: scale not given: the % may be the effect or the level left
Conditions: not given

Compound	Activity [%]
O=c1c(O)c(-c2cc(O)c(O)c(O)c2)oc2cc(O)cc(O)c12 [MYRICETIN]	12
COc1ccc(-c2cc(=O)c3c(O)cc(O)cc3o2)cc1	88.6
O=c1c(O)c(-c2ccc(O)cc2)oc2cc(O)cc(O)c12	59.3
O=c1c(O)c(-c2ccc(O)cc2O)oc2cc(O)cc(O)c12 [MORIN]	18
C[C@@H]1O[C@@H](OC[C@H]2O[C@@H](Oc3c(-c4ccc(O)c(O)c4)oc4cc(O)cc(O)c4c3=O)[C@H](O)[C@@H](O)[C@@H]2O)[C@H](O)[C@H](O)[C@H]1O [RUTIN]	49.1
O=c1cc(-c2ccc(O)cc2)oc2cc(O)cc(O)c12 [APIGENIN]	12.9
O=c1c(-c2ccc(O)cc2)coc2cc(O)cc(O)c12 [GENISTEIN]	6.6
O=c1cc(-c2ccccc2)oc2cc(O)cc(O)c12 [CHRYSIN]	11.2
O=C1C[C@@H](c2ccc(O)cc2)Oc2cc(O)cc(O)c21 [NARINGENIN]	83.9
O=c1cc(-c2ccccc2)oc2cc(O)ccc12 [7-HYDROXYFLAVONE]	54.2
O=C1CC(c2ccccc2)Oc2ccccc21 (centres undefined) [FLAVANONE]	6.5
O=c1cc(-c2ccccc2)oc2ccccc12 [FLAVONE]	14.5
O=c1c(O)c(-c2ccc(O)c(O)c2)oc2cc(O)ccc12 [FISETIN]	8.3
COc1ccc(-c2oc3cc(O)cc(O)c3c(=O)c2O)cc1	70.6
O=c1c(O)c(-c2ccc(O)c(O)c2)oc2cc(O)cc(O)c12 [QUERCETIN]	6.4
O=c1cc(-c2ccccc2)oc2cccc(O)c12 [5-HYDROXYFLAVONE]	14.6
O=c1c(O)c(-c2ccccc2)oc2cc(O)cc(O)c12 [GALANGIN]	48.6
COc1ccccc1-c1cc(=O)c2c(OC)cccc2o1	86.9

Molecular target: not listed separately
Test: Inhibition of beef heart mitochondrial NADH oxidase assessed per mg of protein
Parameters: species or system Bos taurus
Conditions: read-out: I50

Compound	IC50 [nmol/mg]
O=c1c(O)c(-c2cc(O)c(O)c(O)c2)oc2cc(O)cc(O)c12 [MYRICETIN]	35
O=c1c(O)c(-c2ccc(O)cc2O)oc2cc(O)cc(O)c12 [MORIN]	430
C[C@@H]1O[C@@H](OC[C@H]2O[C@@H](Oc3c(-c4ccc(O)c(O)c4)oc4cc(O)cc(O)c4c3=O)[C@H](O)[C@@H](O)[C@@H]2O)[C@H](O)[C@H](O)[C@H]1O [RUTIN]	1890
O=C1c2c(O)cc(O)cc2O[C@H](c2ccc(O)c(O)c2)[C@H]1O [(+)-TAXIFOLIN]	1040
O=c1cc(-c2ccc(O)cc2)oc2cc(O)cc(O)c12 [APIGENIN]	920
O=C1c2ccc(O)cc2O[C@H](c2ccc(O)c(O)c2)[C@H]1O [FUSTIN]	671
O=c1c(-c2ccc(O)cc2)coc2cc(O)cc(O)c12 [GENISTEIN]	365
O=c1cc(-c2ccccc2)oc2cc(O)cc(O)c12 [CHRYSIN]	250
O=c1cc(-c2ccccc2)oc2cc(O)ccc12 [7-HYDROXYFLAVONE]	1400
O=C1CC(c2ccccc2)Oc2ccccc21 (centres undefined) [FLAVANONE]	310
O=c1cc(-c2ccccc2)oc2ccccc12 [FLAVONE]	240
O=c1c(O)c(-c2ccc(O)c(O)c2)oc2cc(O)ccc12 [FISETIN]	15
O=c1c(O)c(-c2ccc(O)c(O)c2)oc2cc(O)cc(O)c12 [QUERCETIN]	145
O=c1cc(-c2ccccc2)oc2cccc(O)c12 [5-HYDROXYFLAVONE]	425
O=c1c(O)c(-c2ccccc2)oc2cc(O)cc(O)c12 [GALANGIN]	1670

Species: Bos taurus
Test: Inhibition of beef heart mitochondrial NADH oxidase assessed as complete enzyme inhibition at 100 nmol/mg
Conditions: not given

Compound	Activity
O=c1c(O)c(-c2ccc(O)c(O)c2)oc2cc(O)ccc12 [FISETIN]	Active

Species: Rattus norvegicus
Test: Inhibition of rat liver mitochondrial ATPase assessed as specific activity at 0.42 mM relative to control
Parameters: scale not given: the % may be the effect or the level left
Conditions: not given

Compound	Activity [%]
O=c1c(O)c(-c2cc(O)c(O)c(O)c2)oc2cc(O)cc(O)c12 [MYRICETIN]	8.4
COc1ccc(-c2cc(=O)c3c(O)cc(O)cc3o2)cc1	98.7
O=c1c(O)c(-c2ccc(O)cc2)oc2cc(O)cc(O)c12	94.2
O=c1c(O)c(-c2ccc(O)cc2O)oc2cc(O)cc(O)c12 [MORIN]	13.3
C[C@@H]1O[C@@H](OC[C@H]2O[C@@H](Oc3c(-c4ccc(O)c(O)c4)oc4cc(O)cc(O)c4c3=O)[C@H](O)[C@@H](O)[C@@H]2O)[C@H](O)[C@H](O)[C@H]1O [RUTIN]	66.5
O=c1cc(-c2ccc(O)cc2)oc2cc(O)cc(O)c12 [APIGENIN]	84.6
O=c1c(-c2ccc(O)cc2)coc2cc(O)cc(O)c12 [GENISTEIN]	69.2
O=c1cc(-c2ccccc2)oc2cc(O)cc(O)c12 [CHRYSIN]	77.7
O=C1C[C@@H](c2ccc(O)cc2)Oc2cc(O)cc(O)c21 [NARINGENIN]	43.6
O=c1cc(-c2ccccc2)oc2cc(O)ccc12 [7-HYDROXYFLAVONE]	95.1
O=C1CC(c2ccccc2)Oc2ccccc21 (centres undefined) [FLAVANONE]	73.4
O=c1cc(-c2ccccc2)oc2ccccc12 [FLAVONE]	67.4
O=c1c(O)c(-c2ccc(O)c(O)c2)oc2cc(O)ccc12 [FISETIN]	17.2
COc1ccc(-c2oc3cc(O)cc(O)c3c(=O)c2O)cc1	96.1
O=c1c(O)c(-c2ccc(O)c(O)c2)oc2cc(O)cc(O)c12 [QUERCETIN]	7.1
O=c1cc(-c2ccccc2)oc2cccc(O)c12 [5-HYDROXYFLAVONE]	98.9
O=c1c(O)c(-c2ccccc2)oc2cc(O)cc(O)c12 [GALANGIN]	99.9
COc1ccccc1-c1cc(=O)c2c(OC)cccc2o1	77.3

Molecular target: not listed separately
Test: Inhibition of beef heart mitochondrial succinoxidase assessed per mg of protein
Parameters: species or system Bos taurus
Conditions: read-out: I50

Compound	IC50 [nmol/mg]
O=c1c(O)c(-c2cc(O)c(O)c(O)c2)oc2cc(O)cc(O)c12 [MYRICETIN]	45
O=c1c(O)c(-c2ccc(O)cc2O)oc2cc(O)cc(O)c12 [MORIN]	730
O=c1c(O)c(-c2ccc(O)c(O)c2)oc2cc(O)ccc12 [FISETIN]	45
O=c1c(O)c(-c2ccc(O)c(O)c2)oc2cc(O)cc(O)c12 [QUERCETIN]	715
